Measurements as given in patent US11541065B2, “Compositions and methods for treating brain injury” (UNM RAINFOREST INNOVATIONS, priority 2018, dated 2023).

Experiments:
[1] = system: MCP-1; experiment: MCP-1 level in ischemic brain (ELISA); type: in vivo, Wistar rats; settings: HHcy rats, MCAO 60 minutes, six hours of reperfusion, NVP-AAM077 1.2 mg/kg intravenous at onset of insult
Description: (§1) Wistar rats were made hyperhomocysteinemic using osmotic pump containing L-homocysteine. Animals were hyperhomocysteinemic (19-23 μM) within three days of pump implantation. Ischemic stroke was induced by MCAO for 60 minutes followed by reperfusion for six hours. Tissue punches from the ipsilateral striatum and cortex were lysed in ice-cold Phosphate buffered saline (pH 7.4) containing phosphatase inhibitor, sonicated three times in five-second bursts and placed on ice (two minutes) between each burst of sonication. The lysed cell suspensions were centrifuged at 10,000 rpm (10 minutes) and the supernatant was collected in another tube. Equal amounts of protein from the supernatant were processed for PGE2 and MCP-1 levels using respective ELISA kit.

[2] = system: PGE2; experiment: PGE2 level in ischemic brain (ELISA); type: in vivo, Wistar rats; settings: HHcy rats, MCAO 60 minutes, six hours of reperfusion, NVP-AAM077 1.2 mg/kg intravenous at onset of insult
Description: as §1

[3] = system: [Ca^2+]i; experiment: Intracellular Ca^2+ by Fura2 imaging, WT and GluN2A KO mouse neuronal cultures; type: cell-based, mice; settings: somata and processes, L-homocysteine 50 μM, 60 min
Description: Embryos obtained from pregnant Sprague Dawley rats (16-17-day gestation) or wild type (WT) and GluN2A KO mice (15-16-day gestation) were used to establish primary cortical neuronal cultures as previously described (Poddar and Paul, 2009, J Neurochem 110:1095-1106; Poddar and Paul, 2013, J Neurochem 124:558-570; Poddar et al., 2017, J Neurochem 142:560-573). Neurons were grown on either (a) 35-mm culture dishes (MatTek Corp., Ashland, Mass.) coated overnight with poly-D-lysine (50 μg/ml) and laminin (10 μg/ml) for Ca^2+ imaging studies, (b) poly-D-lysine-coated 60 mm dishes (Corning BIOCOAT, Corning Inc., Corning, N.Y.) for biochemical studies, or (c) poly-D-lysine-coated 4-well culture slides (Corning BIOCOAT, Corning Inc., Corning, N.Y.) for cell death assay. Neurons were maintained in culture for 12-13 days before experiment. The cells were treated with freshly prepared L-homocysteine (50 μM) in Hank's balanced salt solution containing 50 μM of glycine (Lipton et al., 1997, Proceedings of the National Academy of Sciences of the United States of America 94:5923-5928; Poddar and Paul, 2009, J Neurochem 110:1095-1106; Poddar and Paul, 2013, J Neurochem 124:558-570; Poddar et al., 2017, J Neurochem 142:560-573) for the specified time periods. In a parallel series of experiments, cells were treated with glutamate (50 μM) for the specified time periods. Cells were then processed for live cell imaging, immunoblotting or cell death assay. In some experiments EGTA, DL-AP5, NVP-AAM077, Ro 25-6981 or PD98059 was added 15 minutes prior to L-homocysteine or glutamate treatment.
[Ca^2+]i in neurons was determined using the fluorescent indicator, Fura2-AM. […] Fluorescence excitations (340 and 380 nm) were provided with Sutter LB-LS/30 Lambda xenon arc lamp and fluorescence emissions (510 nm) were captured using a CCD camera (Teledyne Photometries, Tucson, Ariz.). […] Maximum and minimum fluorescence ratios were determined from Fura2 loaded cells treated with ionomycin (5 μM) in calcium containing medium (2 mM) or in calcium free media with EGTA (0.5 mM).

[4] = system: COX2; experiment: COX2 protein level in WT and GluN2A-KO mouse neuronal cultures (immunoblot); type: cell-based, mice; settings: L-homocysteine 50 μM, four hours
Description: Equal protein from total cell lysates obtained from rat and mice neuronal cultures were resolved in 7.5% SDS-PAGE, and subjected to immunoblotting procedure as described earlier (Poddar and Paul, 2009, J Neurochem 110:1095-1106). Blots were analyzed with antibodies as described in each experiment. All primary antibodies (anti-COX2, anti-B-tubulin) and secondary-horse radish peroxidase conjugated antibody concentrations were used according to recommendations provided by the manufacturer. Signals from immune complexes in the blots were developed using West Pico supersignal chemiluminescence reagents and then captured on X-ray films. Densitometric analysis of the images was performed using the Image J software.
Rat and mice neuronal cultures were washed with PBS (pH 7.4), containing sodium pyrophosphate and sodium vanadate as phosphatase inhibitors, and harvested in SDS sample buffer (Laemmli, 1970, Nature 227:680-685). Equal protein from total cell lysates, estimated using BCA kit, was resolved by SDS-PAGE (7.5%) followed by western blotting on PVDF membranes. Immunoblot analysis was performed by first blocking with 5% non-fat dry milk for 1 h at room temperature followed by incubation with either COX2 immunoblot analysis (Poddar and Paul, 2009, J Neurochem 110:1095-1106) as described in each experiment. […]

Compound	MCP-1 level in ischemic hemisphere (cortex and striatum) [1]	PGE2 level in ischemic hemisphere (cortex and striatum) [2]	Fura2 fluorescence ratio and [Ca^2+]i ([3]; neurons from GluN2A KO mice)	Fura2 fluorescence ratio and [Ca^2+]i ([3]; neurons from WT mice)	COX2 protein level ([4]; GluN2A-KO mice cultures)	COX2 protein level ([4]; WT mice cultures)
C[C@H](NC(c1cccc2[nH]c(=O)c(=O)[nH]c12)P(=O)(O)O)c1ccc(Br)cc1 (stereo partly drawn) [NVP-AAM077, ({[(1S)-1-(4-bromophenyl)ethyl]amino}-(2,3-dioxo-1,4-dihydroquinoxalin-5-yl)methyl)phosphonic acid]	attenuated the increase in the level of both PGE2 and MCP-1	attenuated the increase in the level of both PGE2 and MCP-1				
N[C@@H](CCS)C(=O)O [L-homocysteine]			fails to increase Fura2 fluorescence ratio or [Ca^2+]i	progressive increase in Fura2 fluorescence ratio and [Ca^2+]i	fails to augment COX2 protein expression	leads to increase in COX2 protein level
